Laboratory results: patent publication US20240082431A1, “METALLOHYDROPORPHYRINS FOR PHOTOACOUSTIC IMAGING” (NIRvana Sciences, Inc., priority 2021, published 2024)

Test: Photoacoustic imaging of dyes in agar phantoms (VEVO LAZR 2100, PA scanning mode 680-900 nm)
Format: physicochemical
Conditions: agar phantom, 63 μM B107, 50 μM ICG in DMF
Experimental: Indocyanine Green (ICG), was obtained from Sigma-Aldrich (Catalogue No. I2633; Sigma-Aldrich Corp., St. Louis, Missouri, United States of America). The nickel bacteriochlorin B107 was prepared as described in Sun et al., 2013 and Chen et al, 2012. Each dye was dissolved in N,N-dimethylformamide (DMF) at the desired concentrations prior to the imaging experiments. Molds for preparing agar phantoms were typically 90 mm diameter glass Petri dishes.
A highly purified agar powder (Catalogue No. A7921; Sigma-Aldrich Corp., St. Louis, Missouri, United States of America) was dissolved in water (Reagent Grade, Type I) to a final concentration of 2.0% and heated to the melting temperature of 95° C. in a microwave oven. […] The bottle containing agar was held at 75-85° C. for 1-3 hours using a standard hot plate and a double boiler to avoid scorching (which causes a detectable increase in the absorption coefficient). This waiting period at an elevated temperature allows the slow release of air bubbles and produces an agar solution with negligible absorption and very low turbidity. […]
Photoacoustic imaging was performed using a VEVO® LAZR^2100 imaging system (VisualSonics, Inc., Toronto, Ontario, Canada) equipped with software version 1.7.2. […] The tubing and its associated image regions were isolated by ultrasound and PA signals for PA intensity quantitation. […]

CC1(C)C(/C=C/C=C/C=C/C=C2\N(CCCCS(=O)(=O)O)c3ccc4ccccc4c3C2(C)C)=[N+](CCCCS(=O)(=O)[O-])c2ccc3ccccc3c21 [ICG, Indocyanine Green]
Max (nm) of PAI signal (depth 3 mm): 790 nm
Max (nm) of PAI signal (depth 6 mm): 795 nm
